The record followed here is patent US20240010616A1, “SIPONIMOD SALTS AND COCRYSTALS” (Synthon B.V., priority 2020, published 2024).

SMILES strings stand for the structures. “Also recorded” adds a separate entry of the source.

Data set [1] can be described thus: Water activity measured by DVS (weight difference between 0 and 90% relative humidity). The class given is physicochemical. The settings on record: 25° C., 0-90-0% relative humidity, step 10%; compared with prior art Siponimod Fumarate (1:0.5), Form A. The procedure: Water activity of the prior art form and solid forms of presented invention was measured: DVS machine ProUmid SPX-1μ Advance, 25° C., 0-90-0% relative humidity, step 10%, maximal time per step 10 hours. Equilibrium bandwidth 0.05%/60 minutes.
Water activity: a difference between the weights of the sample in 0 and 90% of relative humidity at a constant temperature. It corresponds to the amount of water taken by the tested compound when the humidity changes from 0 to 90% at a constant temperature. The higher water activity the more water can be taken by the compound and that might result in lower purity of the compound because hydrolysis impurities can be formed.

Data set [2] can be described thus: Comparison of crystals (SEM pictures): crystal size and proneness to charging. The settings on record: compared with prior art fumarate salt; for Proneness of crystals to charging: relates to processability into final forms (tablets); for Crystal size: crystals depicted in FIGS. 17 to 28. The format is physicochemical. Here is the method:
• DCS patterns were obtained using the following conditions: 10° C./min->250° C. • Pictures of crystals were obtained by SEM Jeol JCM-6000. • Nuclear magnetic resonance spectroscopy (NMR) was performed using Avance III 400 MHz NMR spectrometer.
Prior art fumarate salt was prepared according to procedure described in WO2010/080409. In FIGS. 17 to 22 the crystals of prior art salt (FIG. 22) and crystals of salts of the presented invention (FIGS. 17 to 21) are depicted.
The crystals of solid Form 11 of cocrystal of Siponimod with adipic acid (2:1) are depicted in FIGS. 25 to 27. The crystal of Siponimod fumarate, Form A, are depicted in FIG. 28.

Turning to `CCc1cc(/C(C)=N/OCc2ccc(C3CCCCC3)c(C(F)(F)F)c2)ccc1CN1CC(C(=O)O)C1.CCc1cc(/C(C)=N/OCc2ccc(C3CCCCC3)c(C(F)(F)F)c2)ccc1CN1CC(C(=O)O)C1.O=C(O)CCCCC(=O)O` [Form 11], in data set [1], the Water activity result is “lower water activity than Siponimod fumarate, Form A; also recorded: better comparing to prior art forms”. Further, in data set [2], the “Proneness of crystals to charging” value is listed as “less prone to charging” and the Crystal size result is listed as “much bigger than crystals of Form A”.
On to `CCc1cc(/C(C)=N/OCc2ccc(C3CCCCC3)c(C(F)(F)F)c2)ccc1CN1CC(C(=O)O)C1.CCc1cc(/C(C)=N/OCc2ccc(C3CCCCC3)c(C(F)(F)F)c2)ccc1CN1CC(C(=O)O)C1.O=C(O)/C=C/C(=O)O` [Prior art fumarate salt, reference compound], for which, in data set [2], the “Proneness of crystals to charging” value is reported as “prone to charging” and the Crystal size result was “small crystals”.
